These results are taken from patent US7381572B2, “Reagents and procedures for multi-label high-specificity labeling” (Rutgers, The State University of New Jersey, priority 2004, dated 2008).

One experiment concerns tetracysteine peptide. The following applies: initially non-fluorescent; Griffin, et al. Science (1998); cited from earlier work.
A short description of experiment [1]: Multicolor, multisite labeling, pairs of peptides: FlAsH detection. It is filed as binding. The following applies: pair of G1^0 with the named peptide; both probes present; 5, 10, 20 mM DTT. As for the experimental part: (§1) Multicolor, multisite labeling was assessed in electrophoretic-mobility-shift assays. Pairs of tetracysteine-tagged peptides—one neutral tetracysteine-tagged peptide, and one negatively-charged tetracysteine-tagged peptide (the charge difference resulting in different electrophoretic mobilities on the gel, thus allowing the two tetracysteine-tagged peptides to be distinguished)—were analyzed. For each combination of probe and pair of tetracysteine-tagged peptides, three reactions were performed in parallel: one reaction at 5 mM DTT, one reaction at 10 mM DTT, and one reaction at 20 mM DTT. […] DTT (1 μl of 50 mM DTT for reactions at 5 mM DTT, 1 μl of 100 mM DTT for reactions at 10 mM DTT, and 1 μl of 200 mM DTT for reactions at 20 mM DTT) was added, and samples were incubated 30 min at 25° C.

The nature of experiment [2]: Multicolor, multisite labeling, pairs of peptides: Cy5 detection. It is filed as binding. The following applies: pair of G1^0 with P3, P4, P5 or P6; both probes present; 5, 10, 20 mM DTT. The protocol: as §1
Experiment [3] is classed as binding. The following applies: excitation 488 nm, emission ≧680 nm.
Experiment [4] is described as follows: Tag-conjugate interaction found by the inventors: Cy3 derivatives. It is filed as binding.
The nature of experiment [5]: Tag-conjugate interaction found by the inventors: Cy5 derivatives. It is filed as binding.
Experiment [6] can be described thus: Tag-conjugate binding found by the inventors: Cy3 and Cy5 bis-propionamido-phenylarsine derivatives.
Experiment [7] is described as follows: Tag-conjugate interaction found by the inventors: FlAsH-EDT2. It is filed as binding.
A short description of experiment [8]: Multicolor, multisite labeling of doubly-tetracysteine-tagged proteins (SARPs), crude lysate. The settings on record: for FlAsH-Cy5 FRET within the resulting complex (SARP detection): excitation 488 nm, emission ≧680 nm; for co-labeling by FlAsH and Cy5-(SO3)2-(PAEDT)2: ~1 μM doubly-tagged protein. It is filed as binding, Escherichia coli. The protocol: Multicolor, multisite labeling of doubly-tetracysteine-tagged proteins—yielding self-assembled relay probes, SARPs—was assessed in electrophoretic-mobility-shift assays. DTT (1 μl of 125 mM solution) was added to 23 μl crude lysate containing doubly-tetracysteine-tagged protein (˜1 μM; Example 14.2), and samples were incubated 30 min at 25° C. Cy5-(SO3)2-(PAEDT)2 (Example 9.2; 0.5 μl of 1 mM solution in DMF) was added, and samples were incubated 20 min at 25° C. FlAsH (Griffin, et al. (2000) Methods Enzmol. 327, 565-578; 0.5 μl of 0.1 mM solution in DMF) was then added, and samples were further incubated 5 min at 25° C.

Like-named read-outs stand apart in the source and are kept apart here. No end group written: not given here. Bounds are passed on as bounds.

For the molecule `O=C(O)c1ccccc1-c1c2ccc(=O)c([As]3SCCS3)c-2oc2c([As]3SCCS3)c(O)ccc12` [FlAsH-EDT2, 4′,5′-bis (1,3,2-dithioarsolan-2-yl)fluorescein], in the experiment on tetracysteine peptide, the “fluorescence on addition of a tetracysteine peptide to displace the EDT” value is recorded as “develops bright fluorescence”.
In the case of “Ac-EWNCCPPPCCN—CONH2 (Ac-EWNCCPPPCCN-NH2; cysteine pairing not given here) [P3]”, in [1], the “FlAsH labeling as % of the level of labeling of G1^0” value (from here on “FlAsH labeling as %”) is below 10%. For the same molecule, the “labeling by Cy5-(SO3)2-(PAEDT)2 in a pair of peptides” value (“labeling … of peptides” below) in experiment [2] is recorded as “labeled”.
For “Ac-EWNCCPPPPCCN-AEAAAKEAAAKEAAAKEAAAKA-NCCGCCN—CONH2 [SARP-P4/G1-HL4X]”, in experiment [3], the “FlAsH-Cy5 FRET within the resulting complex (SARP detection)” value is listed as “participated in FlAsH-Cy5 FRET”.
Regarding “Ac-EWNCCPPPPCCN—CONH2 (Ac-EWNCCPPPPCCN-NH2; cysteine pairing not given here) [P4]”, the “FlAsH labeling as %” value in experiment [1] is recorded as below 10%. For the same molecule, the “labeling … of peptides” value in [2] is “labeled”.
Take “Ac-EWNCCPPPPCCN—PPPPPPPPPPPP—NCCGCCN—CONH2 [SARP-P4/G1-PP12]”: the “FlAsH-Cy5 FRET within the resulting complex (SARP detection)” value in [3] is reported as “participated in FlAsH-Cy5 FRET”.
Same read-out and setting: the value for “Ac-EWNCCPPPPCCN—PPPPPPPPP—NCCGCCN—CONH2 [SARP-P4/G1-PP9]” was “participated in FlAsH-Cy5 FRET”.
Consider “Ac-EWNCCPPPPPCCN—CONH2 (Ac-EWNCCPPPPPCCN-NH2; cysteine pairing not given here) [P5]”, for which the “FlAsH labeling as %” value in experiment [1] is reported as below 10%. Further, the “labeling … of peptides” value in [2] is “labeled”.
Turning to “Ac-EWNCCPPPPPPCCN—CONH2 (Ac-EWNCCPPPPPPCCN-NH2; cysteine pairing not given here) [P6]”, the “FlAsH labeling as %” value in experiment [1] was below 10%. Besides, in [2], the “labeling … of peptides” value is listed as “labeled”.
As for “CCGPCC: tetracysteine peptide tag of the general form CCXXCC (target sequence)”, in [4], the “interaction of tag with Cy3 derivatives of conjugates according to Formula (I)” value is listed as “interact tightly”. The “interaction of tag with Cy5 derivatives of conjugates according to Formula (I)” value in experiment [5] is “not interact, or interact less tightly”.
In the case of CCPGPCC, the “binding of tag to Cy3 and Cy5 (bis-sulfonato) bis-propionamido-phenylarsine derivatives” value (“binding of tag to Cy3 and Cy5” below) in [6] was “bind”. Further, the “interaction of tag with FlAsH-EDT2” value in [7] was “not interact substantially”.
Consider “CCPPPCC (target sequence) [tetracysteine peptide tag of the form CC(P)nCC]”, for which, in [6], the “binding of tag to Cy3 and Cy5” value is listed as “bind”. In addition, in experiment [7], the “interaction of tag with FlAsH-EDT2” value was “not interact substantially”.
“CCPPPPCC (target sequence) [tetracysteine peptide tag of the form CC(P)nCC]”: the “binding of tag to Cy3 and Cy5” value in experiment [6] is given as “bind”. Moreover, the “interaction of tag with FlAsH-EDT2” value in experiment [7] is listed as “not interact substantially”.
On to “CCPPPPPCC (target sequence) [tetracysteine peptide tag of the form CC(P)nCC]”, for which the “binding of tag to Cy3 and Cy5” value in experiment [6] was “bind”. In addition, the “interaction of tag with FlAsH-EDT2” value in experiment [7] is listed as “not interact substantially”.
As for “CCPPPPPPCC (target sequence) [tetracysteine peptide tag of the form CC(P)nCC]”, in experiment [6], the “binding of tag to Cy3 and Cy5” value is listed as “bind”. In addition, the “interaction of tag with FlAsH-EDT2” value in experiment [7] was “not interact substantially”.
Take “CGCGCGC (not fully specified (N-terminus, C-terminus); cysteine pairing not given here) [Ac—WNCGCGCGCN—CONH2, tag CGCGCGC; tested as the set A peptide that holds it]”: the “binding of tag to Cy5 bis-sulfonato bis-propionamido-phenylarsine or Cy5 bis-propionamido-phenylarsine” value in [5] was “bind”. Besides, the “interaction of tag with FlAsH-EDT2” value in experiment [7] is recorded as “do not interact substantially”.
CGPCCGPC [Ac—WNCGPCCGPCN—CONH2]: the “binding of tag to Cy5 bis-sulfonato bis-propionamido-phenylarsine or Cy5 bis-propionamido-phenylarsine” value in experiment [5] is “bind”. In experiment [7], the “interaction of tag with FlAsH-EDT2” value was “do not interact substantially”.
For “α-CCPPPCC—PPPPPPPPP—CCGCCN [α-SARP-P3/G1-PP9]”, in [8], the “specificity of co-labeling and FRET-dependent detection (other proteins labeled)” value is given as “no other protein in the crude lysate was detectably labeled”; the “FlAsH-Cy5 FRET within the resulting complex (SARP detection)” value is on record as “participated in FlAsH-Cy5 FRET”; the “co-labeling by FlAsH and Cy5-(SO3)2-(PAEDT)2” value is listed as “co-labeled”.
Turning to “α-CCPPPPCC—PPPPPPPPP—CCGCCN [α-SARP-P4/G1-PP9]”, in experiment [8], the “specificity of co-labeling and FRET-dependent detection (other proteins labeled)” value is on record as “no other protein in the crude lysate was detectably labeled”; the “FlAsH-Cy5 FRET within the resulting complex (SARP detection)” value was “participated in FlAsH-Cy5 FRET”; the “co-labeling by FlAsH and Cy5-(SO3)2-(PAEDT)2” value is recorded as “co-labeled”.
